Measurements from PubChem BioAssay (NCI).
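Each compound was tested at five concentrations against cells in 96-well plates for 48 hours. TGI: concentration producing complete growth inhibition.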

Tests used:
Assay in all cases: inhibition of tumour cell growth, NCI panel, 48 h
HCT-15 colon = tested on: HCT-15 colon
SF-295 CNS = tested on: SF-295 CNS
KM12 colon = tested on: KM12 colon
UACC-62 melanoma = tested on: UACC-62 melanoma
TK-10 renal = tested on: TK-10 renal
LXFL 529 NSCLC = tested on: LXFL 529 NSCLC
SNB-75 CNS = tested on: SNB-75 CNS
COLO 205 colon = tested on: COLO 205 colon
IGROV1 ovarian = tested on: IGROV1 ovarian
SK-OV-3 ovarian = tested on: SK-OV-3 ovarian
MOLT-4 leukemia = tested on: MOLT-4 leukemia
OVCAR-4 ovarian = tested on: OVCAR-4 ovarian
OVCAR-5 ovarian = tested on: OVCAR-5 ovarian
RXF-631 renal = tested on: RXF-631 renal
LOX IMVI melanoma = tested on: LOX IMVI melanoma
SNB-78 CNS = tested on: SNB-78 CNS
HOP-92 NSCLC = tested on: HOP-92 NSCLC
786-0 renal = tested on: 786-0 renal
NCI-H460 lung = tested on: NCI-H460 lung
XF 498 CNS = tested on: XF 498 CNS
SK-MEL-28 melanoma = tested on: SK-MEL-28 melanoma
M19-MEL melanoma = tested on: M19-MEL melanoma
MALME-3M melanoma = tested on: MALME-3M melanoma
NCI-H522 lung = tested on: NCI-H522 lung
CAKI-1 renal = tested on: CAKI-1 renal
A549 NSCLC = tested on: A549 NSCLC
OVCAR-8 ovarian = tested on: OVCAR-8 ovarian
HL-60(TB) leukemia = tested on: HL-60(TB) leukemia
DMS 273 small cell lung = tested on: DMS 273 small cell lung
M14 melanoma = tested on: M14 melanoma
HOP-62 NSCLC = tested on: HOP-62 NSCLC
SK-MEL-2 melanoma = tested on: SK-MEL-2 melanoma
SF-268 CNS = tested on: SF-268 CNS
RXF 393 renal = tested on: RXF 393 renal
CCRF-CEM leukemia = tested on: CCRF-CEM leukemia
RPMI-8226 leukemia = tested on: RPMI-8226 leukemia
HCC-2998 colon = tested on: HCC-2998 colon
EKVX NSCLC = tested on: EKVX NSCLC
HT29 colon = tested on: HT29 colon
SW-620 colon = tested on: SW-620 colon
SN12C renal = tested on: SN12C renal
DMS 114 small cell lung = tested on: DMS 114 small cell lung
OVCAR-3 ovarian = tested on: OVCAR-3 ovarian
UACC-257 melanoma = tested on: UACC-257 melanoma
KM20L2 colon = tested on: KM20L2 colon
K-562 leukemia = tested on: K-562 leukemia
DLD-1 colon = tested on: DLD-1 colon
ACHN renal = tested on: ACHN renal
SK-MEL-5 melanoma = tested on: SK-MEL-5 melanoma
NCI-H23 lung = tested on: NCI-H23 lung
UO-31 renal = tested on: UO-31 renal
NCI-H226 lung = tested on: NCI-H226 lung
SNB-19 CNS = tested on: SNB-19 CNS
HCT-116 colon = tested on: HCT-116 colon
SF-539 CNS = tested on: SF-539 CNS
SR leukemia = tested on: SR leukemia
U251 CNS = tested on: U251 CNS
A498 renal = tested on: A498 renal

Measured: TGI

CCOC(=O)C(C)c1c(C(=O)c2ccc(C)nc2)c2ccccc2n1C (configuration not stated)
not listed: UO-31 renal | NCI-H226 lung | SNB-19 CNS | HCT-116 colon | SF-539 CNS | SR leukemia | U251 CNS | A498 renal
> 100 µM: all other assays above

COc1cccc2c1N[S@](=O)S2
not listed: COLO 205 colon | OVCAR-4 ovarian | OVCAR-5 ovarian | NCI-H460 lung | OVCAR-8 ovarian | HOP-62 NSCLC | RXF 393 renal | HCC-2998 colon | DMS 114 small cell lung | SK-MEL-5 melanoma | A498 renal
> 100 µM: all other assays above

O=C(Cc1nc2ccccc2o1)C(=O)Nc1ccccc1C(F)(F)F
not listed: MOLT-4 leukemia | SK-MEL-28 melanoma | SR leukemia
> 100 µM: all other assays above
